25 compounds from ChEMBL document CHEMBL5576061, “The role of the methoxy group in approved drugs” (Eur J Med Chem, 2024) can be followed below.

The structures appear in SMILES notation. A value given as a limit tells only on which side of the number the result lay.

The target in the first experiment is T1, Non-receptor tyrosine-protein kinase TYK2 (Homo sapiens, UniProt P29597). The experiment in a line: Inhibition of TYK2 (unknown origin) (575 to 869 residues) by HTRF assay.
T1 sequence (P29597 whole entry, the tested form may be a part): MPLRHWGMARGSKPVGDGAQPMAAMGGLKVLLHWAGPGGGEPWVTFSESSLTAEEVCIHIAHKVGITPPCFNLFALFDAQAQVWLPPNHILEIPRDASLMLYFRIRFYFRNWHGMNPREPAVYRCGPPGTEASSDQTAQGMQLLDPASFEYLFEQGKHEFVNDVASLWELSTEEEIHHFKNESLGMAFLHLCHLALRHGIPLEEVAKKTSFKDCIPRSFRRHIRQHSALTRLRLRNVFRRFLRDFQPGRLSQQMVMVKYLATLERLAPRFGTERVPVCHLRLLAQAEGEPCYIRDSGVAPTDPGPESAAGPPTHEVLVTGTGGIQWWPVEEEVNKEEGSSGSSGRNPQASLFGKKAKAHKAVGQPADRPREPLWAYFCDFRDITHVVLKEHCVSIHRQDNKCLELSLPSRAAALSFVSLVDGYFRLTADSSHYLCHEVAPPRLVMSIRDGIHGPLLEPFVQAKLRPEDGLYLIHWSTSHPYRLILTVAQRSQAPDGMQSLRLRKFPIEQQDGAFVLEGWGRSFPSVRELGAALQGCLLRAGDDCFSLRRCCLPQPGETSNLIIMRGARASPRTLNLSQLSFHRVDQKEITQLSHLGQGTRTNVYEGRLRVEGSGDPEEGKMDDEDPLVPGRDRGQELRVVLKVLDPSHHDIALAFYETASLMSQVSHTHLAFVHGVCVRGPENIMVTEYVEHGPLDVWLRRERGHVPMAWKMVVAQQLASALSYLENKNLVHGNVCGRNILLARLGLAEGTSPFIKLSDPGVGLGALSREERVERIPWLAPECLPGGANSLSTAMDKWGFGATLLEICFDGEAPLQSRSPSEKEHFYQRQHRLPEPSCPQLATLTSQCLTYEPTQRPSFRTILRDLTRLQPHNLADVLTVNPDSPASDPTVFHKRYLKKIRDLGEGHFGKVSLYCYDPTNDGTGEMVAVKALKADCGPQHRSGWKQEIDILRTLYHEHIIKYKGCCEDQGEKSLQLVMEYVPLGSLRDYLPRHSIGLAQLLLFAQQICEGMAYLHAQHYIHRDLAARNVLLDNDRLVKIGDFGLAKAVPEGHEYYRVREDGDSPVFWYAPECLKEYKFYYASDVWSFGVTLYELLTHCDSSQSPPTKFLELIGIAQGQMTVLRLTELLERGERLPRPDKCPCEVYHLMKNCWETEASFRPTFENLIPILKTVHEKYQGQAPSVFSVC
Settings: not given
For orientation: In TR-FRET formats the signal depends on donor and acceptor labels being close together.
For orientation: IC50 means the concentration needed to halve the response being measured. Read a low IC50 as greater potency in that assay. `CNC(=O)c1cnc(Nc2ccc(F)cn2)cc1Nc1cccc(C(=O)NC)c1OC` showed a concentration for half-maximal inhibition (IC50) of 0.6 nM.
On the same count and under the same terms, for `CNC(=O)c1cccc(Nc2cc(Nc3ccc(F)cn3)ncc2C(=O)NC)c1` the value was 44 nM.

Biological target in a further experiment: not listed separately
The experiment in a line: Inhibition of tyrosine kinase (unknown origin). More on the design: species or system Homo sapiens.
Settings: not given
Compound `COc1cc(Nc2c(C#N)cnc3cc(OC)c(OC)cc23)c(Cl)cc1Cl` showed a concentration for half-maximal inhibition (IC50) of 4.3 nM.
Same read-out and setting: the same measure for `COc1cc2ncc(C#N)c(Nc3ccc(Cl)cc3Cl)c2cc1OC`: 30 nM; for `COc1cc(Nc2c(C#N)cnc3cc(OCCCN4CCOCC4)c(OC)cc23)c(Cl)cc1Cl`: 0.8 nM; for `COc1ccc2ncc(C#N)c(Nc3ccc(Cl)cc3Cl)c2c1`: 320 nM.
Still for that read-out and setting: the same measure for `COc1ccc2c(Nc3ccc(Cl)cc3Cl)c(C#N)cnc2c1`: 200 nM; for `COc1cc2ncc(C#N)c(Nc3cc(O)c(Cl)cc3Cl)c2cc1OC`: 190 nM.
On the same count and under the same terms, the same measure for `CCOc1cc(Nc2c(C#N)cnc3cc(OC)c(OC)cc23)c(Cl)cc1Cl`: 1200 nM; for `N#Cc1cnc2cc(O)c(O)cc2c1Nc1ccc(Cl)cc1Cl`: > 1000 nM; for `N#Cc1cnc2ccccc2c1Nc1ccc(Cl)cc1Cl`: > 1000 nM.
`COc1cc(Nc2c(C#N)cnc3cc(OCCCN4CCN(C)CC4)c(OC)cc23)c(Cl)cc1Cl` [BOSUTINIB] came in with an IC50 of 1.2 nM.

The test system of the next experiment is Human immunodeficiency virus 1. The experiment in a line: Antiviral activity against HIV-1 infected in human MT4 cells assessed as inhibition of viral growth. The format is functional, organism-based. As to conditions: Human immunodeficiency virus 1, MT4.
The EC50 is the midpoint of the concentration-response curve. For the compound `O=C(O)c1c[nH]c2ccc(Cc3cccc(Cl)c3F)cc2c1=O`, the EC50 stood at 805 nM.
Still for that read-out and setting: for `O=C(O)c1cn(CCO)c2ccc(Cc3cccc(Cl)c3F)cc2c1=O` the value was 76.3 nM; for `O=C(O)c1cnc2ccc(Cc3ccccc3)cc2c1O`, > 30000 nM.

The next experiment addresses T1, Non-receptor tyrosine-protein kinase TYK2. The experiment in a line: Inhibition of TYK2 (unknown origin).
Settings: not given
For the compound `CNC(=O)c1cnc(NC(=O)C2CC2)cc1Nc1cccc(-c2ncn(C)n2)c1OC`, the IC50 came to 0.7 nM.
The same measure, in the same setting: for `CNC(=O)c1cnc(Nc2cc(C)c(F)cn2)cc1Nc1cccc(-c2ncn(C)n2)c1OC` the value was 0.4 nM; for `[2H]C([2H])([2H])NC(=O)c1cnc(NC(=O)C2CC2)cc1Nc1cccc(-c2ncn(C)n2)c1OC`, 0.3 nM.

A further experiment concerns Hepatitis C virus. Kind of experiment: Antiviral activity against Hepatitis C virus genotype 1a infected in human Huh-7 cells assessed as reduction in viral infection. In kind it is functional, organism-based, Hepacivirus hominis.
Settings: not given
With `COc1ccc2c(c1)[C@@H]1C[C@]1(C(=O)N1C[C@@H](C)O[C@@H](C)C1)Cn1c-2c(C2CCCCC2)c2ccc(C(=O)NS(=O)(=O)N(C)C)cc21`, the EC50 was determined as 12 nM.

In a further experiment the test system is Human immunodeficiency virus 1. The experiment in a line: Antiviral activity against HIV-1 3B infected in human MT4 cells assessed as reduction in virus-induced cytopathic effect incubated for 4 days by MTT assay. As to conditions: Human immunodeficiency virus 1, 3B, MT4, 96 h. In kind it is functional, organism-based. In general terms: Damage to the host cells serves as the signal in cytopathic effect assays.
For the compound `CNC(=O)c1ccc(OC)c2c(C(=O)C(=O)N3CCN(C(=O)c4ccccc4)CC3)c[nH]c12`, the EC50 came to 0.76 nM.
Still for that read-out and setting: for `CNC(=O)c1ncc(OC)c2c(C(=O)C(=O)N3CCN(C(=O)c4ccccc4)CC3)c[nH]c12` the value was 0.28 nM.

For another experiment, the target named is Human immunodeficiency virus type 1 integrase (Human immunodeficiency virus 1, UniProt Q7ZJM1). The experiment in a line: Inhibition of HIV-1 integrase.
Chain of Human immunodeficiency virus type 1 integrase (Q7ZJM1 whole entry): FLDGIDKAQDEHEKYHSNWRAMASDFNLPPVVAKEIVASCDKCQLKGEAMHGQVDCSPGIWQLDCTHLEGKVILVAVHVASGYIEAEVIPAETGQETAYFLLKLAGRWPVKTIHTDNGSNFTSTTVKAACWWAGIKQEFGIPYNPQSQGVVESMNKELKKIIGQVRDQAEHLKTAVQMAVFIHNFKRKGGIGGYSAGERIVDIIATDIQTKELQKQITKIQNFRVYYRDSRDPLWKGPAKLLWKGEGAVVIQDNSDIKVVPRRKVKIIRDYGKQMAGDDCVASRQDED
Settings: not given
Consider `C=C[C@@H]1C[C@]1(NC(=O)[C@@H]1C[C@@H](Oc2ncc(OC)c3ccccc23)CN1C(=O)[C@@H](NC(=O)OC(C)(C)C)C(C)(C)C)C(=O)NS(=O)(=O)C1CC1`, for which it took 2 nM to reach half-maximal inhibition (IC50).
The compound `C=C[C@@H]1C[C@]1(NC(=O)[C@@H]1C[C@@H](Oc2nccc3ccccc23)CN1C(=O)[C@@H](NC(=O)OC(C)(C)C)C(C)(C)C)C(=O)NS(=O)(=O)C1CC1` showed an IC50 of 7 nM.
Same read-out and setting: the same measure for `C=C[C@@H]1C[C@]1(NC(=O)[C@@H]1C[C@@H](Oc2nccc3ccc(Cl)cc23)CN1C(=O)[C@@H](NC(=O)OC(C)(C)C)C(C)(C)C)C(=O)NS(=O)(=O)C1CC1`: 12 nM.

For the next experiment, the system named is Human immunodeficiency virus 1. Kind of experiment: Antiviral activity against HIV-1 HTLV-IIIB infected in human MT4 cells assessed as reduction in virus induced cytopathic effect by immunofluorescence assay. The settings on record: Human immunodeficiency virus 1, MT4. The format is functional, organism-based.
For `C=C[C@@H]1C[C@]1(NC(=O)[C@@H]1C[C@@H](Oc2ncc(OC)c3ccc(Cl)cc23)CN1C(=O)[C@@H](NC(=O)OC(C)(C)C)C(C)(C)C)C(=O)NS(=O)(=O)C1CC1`, the EC50 amounted to 6 nM.
On the same count and under the same terms, the same measure for `C=C[C@@H]1C[C@]1(NC(=O)[C@@H]1C[C@@H](Oc2ncc(OC)c3ccccc23)CN1C(=O)[C@@H](NC(=O)OC(C)(C)C)C(C)(C)C)C(=O)NS(=O)(=O)C1CC1`: 19 nM; for `C=C[C@@H]1C[C@]1(NC(=O)[C@@H]1C[C@@H](Oc2nccc3ccccc23)CN1C(=O)[C@@H](NC(=O)OC(C)(C)C)C(C)(C)C)C(=O)NS(=O)(=O)C1CC1`: 60 nM.
On the same count and under the same terms, for `C=C[C@@H]1C[C@]1(NC(=O)[C@@H]1C[C@@H](Oc2nccc3ccc(Cl)cc23)CN1C(=O)[C@@H](NC(=O)OC(C)(C)C)C(C)(C)C)C(=O)NS(=O)(=O)C1CC1` the value was 20 nM.

For a further experiment, the system named is Hepatitis C virus. The experiment in a line: Antiviral activity against Hepatitis C virus genotype 1b infected in human Huh-7 cells assessed as reduction in viral infection. In kind it is functional, organism-based, Hepacivirus hominis.
Settings: not given
Turning to `COc1ccc2c(c1)[C@@H]1C[C@]1(C(=O)N1C[C@@H](C)O[C@@H](C)C1)Cn1c-2c(C2CCCCC2)c2ccc(C(=O)NS(=O)(=O)N(C)C)cc21`, the EC50 amounted to 24 nM.
